Experiment: Weights, CBC, blood chemistry and signs of toxicity, Table S1 sheet PD-2 (infected Aotus, twice a day for seven days)
Format: in vivo, Aotus lemurinus lemurinus
Details: oral 10 mg/kg twice a day/7 days, 26047 Female (ITM1)
Description: Laboratory bred Aotus lemurinus lemurinus monkeys (0.75–0.89 kg) were maintained as described. […] Blood samples were collected before the treatment started (t = 0), 0.05 h, 0.5 h, 1 h, 2 h, 6 h, 24 h, 48 h, and 6, 12 and 18 days after the first dose from each monkey and processed as described below. Pharmacokinetic parameters were calculated using PKSolver. For efficacy studies, Aotus monkeys were inoculated intravenously with 5×10^6 parasites of the FVO strain of P. falciparum in an approved treatment protocol. […] Parasitaemia was determined by Giemsa-stained thick blood smears prepared daily from the marginal ear vein [41]. Blood samples were collected from each monkey and transferred to tubes containing lithium heparin, centrifuged and both plasma and blood cells were frozen at −80 °C until analysis. Animals received a physical examination and blood chemistry profiles were monitored after treatment as described previously. Any monkey not responding appropriately to treatment was cured of its infection with mefloquine (40 mg kg^−1). […] The day of clearance is defined as the first of three consecutive days in which the thick blood films are parasite negative. The day of recrudescence is the first of three consecutive days of positive thick blood films after a period of clearance. Suppression is defined as a transient decrease in the parasite count post-treatment without clearance.

Question: For `Nc1nc2c(CN3CC(O)C(CO)C3)c[nH]c2c(=O)[nH]1` (centres unmarked) [BCX4945, 4′-deaza-1′-aza-2′-deoxy-1′-(9-methylene)-Immucillin-G], which “Lymphocytes (%)” value (day 12) is on record?
Answer: 68.4%

Question: What about the “Lymphocytes (x 103/ul)” value (day 12) of the same compound?
Answer: 11.5 x 103/ul

Question: What about the “Mean Corpuscular Hemoglobin” value (day 12) of the same compound?
Answer: 28.3 pg

Question: And the “Mean Corpuscular Volume” value (day 12)?
Answer: 79.5 fL

Question: What about the “Mean Hemoglobin Content” value (day 12) of the same compound?
Answer: 35.5 g/dL

Question: And the “Mean Platelet Volume” value (day 12)?
Answer: 9.9 fL

Question: And the “Monocytes (%)” value (day 12)?
Answer: 10.3%

Question: What about the “Monocytes (x 103/ul)” value (day 12) of the same compound?
Answer: 1.7 x 103/ul

Question: And the Platelets (day 12)?
Answer: 338000 µL⁻¹

Question: What about the “Red Cell Distribution Width” value (day 12) of the same compound?
Answer: 13.6%

Question: What about the Reticulocytes (day 12) of the same compound?
Answer: 2.2%

Question: And the WEIGHT (day 12)?
Answer: 845 g

Question: What about the “Blood Urea Nitrogen” value (day 15) of the same compound?
Answer: 11.4 mg/dL

Question: And the Creatine (day 15)?
Answer: 0.638 mg/dL

Question: And the Erythrocytes (day 15)?
Answer: 4.51e+06 µL⁻¹

Question: What about the “Glutamate Pyruvate Transaminase” value (day 15) of the same compound?
Answer: 21.4 U/L

Question: What about the “Granulocytes (%)” value (day 15) of the same compound?
Answer: 7.5%

Question: And the “Granulocytes (x 103/ul)” value (day 15)?
Answer: 1 x 103/ul

Question: And the Hematocrit (day 15)?
Answer: 36.3%

Question: What about the Hemoglobin (day 15) of the same compound?
Answer: 12.9 g/dL

Question: And the Leucocytes (day 15)?
Answer: 13100 µL⁻¹

Question: And the “Lymphocytes (%)” value (day 15)?
Answer: 81.3%

Question: And the “Lymphocytes (x 103/ul)” value (day 15)?
Answer: 10.7 x 103/ul

Question: And the “Mean Corpuscular Hemoglobin” value (day 15)?
Answer: 28.7 pg

Question: And the “Mean Corpuscular Volume” value (day 15)?
Answer: 80.5 fL

Question: And the “Mean Hemoglobin Content” value (day 15)?
Answer: 35.6 g/dL

Question: And the “Mean Platelet Volume” value (day 15)?
Answer: 10.4 fL

Question: What about the “Monocytes (x 103/ul)” value (day 15) of the same compound?
Answer: 1.5 x 103/ul

Question: And the Platelets (day 15)?
Answer: 164000 µL⁻¹

Question: And the “Red Cell Distribution Width” value (day 15)?
Answer: 17.5%

Question: What about the Reticulocytes (day 15) of the same compound?
Answer: 4.2%

Question: What about the WEIGHT (day 15) of the same compound?
Answer: 839 g

Question: And the “Blood Urea Nitrogen” value (day 18)?
Answer: 16.4 mg/dL

Question: What about the Creatine (day 18) of the same compound?
Answer: 0.5 mg/dL

Question: And the Erythrocytes (day 18)?
Answer: 4.39e+06 µL⁻¹

Question: What about the “Glutamate Pyruvate Transaminase” value (day 18) of the same compound?
Answer: 15.3 U/L

Question: What about the “Granulocytes (%)” value (day 18) of the same compound?
Answer: 7.8%

Question: What about the “Granulocytes (x 103/ul)” value (day 18) of the same compound?
Answer: 1.7 x 103/ul

Question: What about the Hematocrit (day 18) of the same compound?
Answer: 35.7%

Question: And the Hemoglobin (day 18)?
Answer: 12.3 g/dL

Question: What about the Leucocytes (day 18) of the same compound?
Answer: 21900 µL⁻¹

Question: What about the “Lymphocytes (%)” value (day 18) of the same compound?
Answer: 82.9%

Question: What about the “Lymphocytes (x 103/ul)” value (day 18) of the same compound?
Answer: 18.2 x 103/ul

Question: And the “Mean Corpuscular Hemoglobin” value (day 18)?
Answer: 28 pg

Question: And the “Mean Corpuscular Volume” value (day 18)?
Answer: 81.2 fL

Question: What about the “Mean Hemoglobin Content” value (day 18) of the same compound?
Answer: 34.4 g/dL

Question: What about the “Mean Platelet Volume” value (day 18) of the same compound?
Answer: 12.4 fL

Question: What about the “Monocytes (%)” value (day 18) of the same compound?
Answer: 9.3%

Question: What about the “Monocytes (x 103/ul)” value (day 18) of the same compound?
Answer: 2 x 103/ul

Question: And the Platelets (day 18)?
Answer: 115000 µL⁻¹

Question: And the “Red Cell Distribution Width” value (day 18)?
Answer: 16.7%

Question: And the Reticulocytes (day 18)?
Answer: 3.1%

Question: What about the WEIGHT (day 18) of the same compound?
Answer: 860 g

Question: And the Erythrocytes (day 25)?
Answer: 4.98e+06 µL⁻¹

Question: What about the “Granulocytes (%)” value (day 25) of the same compound?
Answer: 4.7%

Question: What about the “Granulocytes (x 103/ul)” value (day 25) of the same compound?
Answer: 0.8 x 103/ul

Question: What about the Hematocrit (day 25) of the same compound?
Answer: 40.8%

Question: And the Hemoglobin (day 25)?
Answer: 13.7 g/dL

Question: And the Leucocytes (day 25)?
Answer: 16900 µL⁻¹

Question: And the “Lymphocytes (%)” value (day 25)?
Answer: 90%

Question: And the “Lymphocytes (x 103/ul)” value (day 25)?
Answer: 15.2 x 103/ul

Question: What about the “Mean Corpuscular Hemoglobin” value (day 25) of the same compound?
Answer: 27.4 pg

Question: And the “Mean Corpuscular Volume” value (day 25)?
Answer: 81.8 fL

Question: And the “Mean Hemoglobin Content” value (day 25)?
Answer: 33.6 g/dL

Question: And the “Mean Platelet Volume” value (day 25)?
Answer: 11.8 fL

Question: And the “Monocytes (%)” value (day 25)?
Answer: 5.3%

Question: What about the “Monocytes (x 103/ul)” value (day 25) of the same compound?
Answer: 0.9 x 103/ul

Question: And the Platelets (day 25)?
Answer: 158000 µL⁻¹

Question: What about the “Red Cell Distribution Width” value (day 25) of the same compound?
Answer: 17.4%

Question: What about the Reticulocytes (day 25) of the same compound?
Answer: 1.9%

Question: What about the WEIGHT (day 25) of the same compound?
Answer: 843 g

Question: And the “Blood Urea Nitrogen” value (day -10)?
Answer: 15.35 mg/dL

Question: What about the Creatine (day -10) of the same compound?
Answer: 0.531 mg/dL

Question: What about the Erythrocytes (day -10) of the same compound?
Answer: 6.12e+06 µL⁻¹

Question: And the “Glutamate Pyruvate Transaminase” value (day -10)?
Answer: 20.1 U/L

Question: And the “Granulocytes (%)” value (day -10)?
Answer: 6.5%

Question: And the “Granulocytes (x 103/ul)” value (day -10)?
Answer: 1.5 x 103/ul

Question: And the Hematocrit (day -10)?
Answer: 47.5%

Question: And the Hemoglobin (day -10)?
Answer: 17.3 g/dL

Question: What about the Leucocytes (day -10) of the same compound?
Answer: 23800 µL⁻¹

Question: And the “Lymphocytes (%)” value (day -10)?
Answer: 87.8%

Question: What about the “Lymphocytes (x 103/ul)” value (day -10) of the same compound?
Answer: 20.9 x 103/ul

Question: And the “Mean Corpuscular Hemoglobin” value (day -10)?
Answer: 28.3 pg

Question: What about the “Mean Corpuscular Volume” value (day -10) of the same compound?
Answer: 77.6 fL

Question: And the “Mean Hemoglobin Content” value (day -10)?
Answer: 36.4 g/dL

Question: And the “Mean Platelet Volume” value (day -10)?
Answer: 11 fL

Question: What about the “Monocytes (%)” value (day -10) of the same compound?
Answer: 5.7%

Question: And the “Monocytes (x 103/ul)” value (day -10)?
Answer: 1.4 x 103/ul

Question: What about the Platelets (day -10) of the same compound?
Answer: 266000 µL⁻¹

Question: What about the “Red Cell Distribution Width” value (day -10) of the same compound?
Answer: 11%

Question: And the Reticulocytes (day -10)?
Answer: 2.1%

Question: What about the WEIGHT (day -10) of the same compound?
Answer: 824 g
